Reference: patent publication US10894807B2 (Siemens Medical Solutions USA, Inc., priority 2011, dated 2021)

Biological target: human PSMA (Homo sapiens (Human), UniProt Q04609)
Test: Enzymatic assay for in vitro evaluation of PSMA inhibitors (fluorescent assay of PSMA activity, NAAG substrate, OPA detection of glutamate)
Type: biochemical
Conditions: for PSMA Blkg % (10 μM): compound at 10 μM
Method: Enzymatic Assay for In Vitro Evaluation of PSMA Inhibitors
The inhibitory activity of all compounds was determined using a fluorescent assay of human PSMA activity. The enzyme used in the assay was purchased from R&D Systems and stored at −80° C. The PSMA activity was assayed in a two-step process. In the first step, aliquots of enzyme (0.2 μg/mL) were incubated for 1 h at 37° C. in 50 mM HEPES, 0.1 M NaCl, pH 7.5, in the presence of 20 μM NAAG and the given inhibitor, in a volume of 250 μL, to allow for the accumulation of glutamate produced in the PSMA reaction. In the second step, the amount of accumulated glutamate was measured using the OPA reaction, and the fluorescence was read with a SpectraMax fluorescent plate reader using excitation at 330 nm and emission at 450 nm. The final Ki values for each inhibitor were calculated from the respective IC50 values using the Cheng and Prusoff equation.

Sequence of human PSMA (Q04609 whole entry): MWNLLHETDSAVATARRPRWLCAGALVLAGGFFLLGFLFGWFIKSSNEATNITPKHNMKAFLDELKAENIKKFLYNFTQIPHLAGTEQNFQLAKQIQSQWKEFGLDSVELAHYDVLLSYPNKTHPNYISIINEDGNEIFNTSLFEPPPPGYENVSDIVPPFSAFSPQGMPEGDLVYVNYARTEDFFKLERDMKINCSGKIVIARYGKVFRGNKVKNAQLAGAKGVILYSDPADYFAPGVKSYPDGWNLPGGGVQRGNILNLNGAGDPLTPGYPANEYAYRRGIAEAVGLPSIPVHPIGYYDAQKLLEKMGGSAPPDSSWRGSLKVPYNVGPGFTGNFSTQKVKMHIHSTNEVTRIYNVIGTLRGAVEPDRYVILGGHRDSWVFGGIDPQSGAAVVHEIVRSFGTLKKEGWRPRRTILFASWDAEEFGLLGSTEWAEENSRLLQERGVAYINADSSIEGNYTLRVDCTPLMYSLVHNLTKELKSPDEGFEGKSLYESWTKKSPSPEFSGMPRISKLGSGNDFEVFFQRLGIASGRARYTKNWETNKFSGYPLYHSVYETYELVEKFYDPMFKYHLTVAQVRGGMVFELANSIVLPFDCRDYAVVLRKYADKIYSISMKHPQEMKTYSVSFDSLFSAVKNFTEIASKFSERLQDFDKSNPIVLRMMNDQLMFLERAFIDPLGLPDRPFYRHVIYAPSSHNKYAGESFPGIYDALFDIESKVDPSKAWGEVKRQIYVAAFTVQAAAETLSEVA

SMILES	PSMA Blkg % (10 μM)	PSMA Blkg % (1.0 μM)	Ki
CCC1(CC)C(=O)N([C@@H](CCCCN(Cc2ccc([N+](=O)[O-])cc2)C(=O)CCCCn2cc(CCCF)nn2)C(=O)O)C(=O)N([C@@H](CCC(=O)O)C(=O)O)C1=O [P105, (S)-2-(3-((S)-1-Carboxy-5-(5-(4-(3-fluoropropyl)-1H-1,2,3-triazol-1-yl)-N-(4-nitrobenzyl)pentanamido)pentyl)-5,5-diethyl-2,4,6-trioxotetrahydropyrimidin-1(2H)-yl)pentanedioic Acid]	5%		
O=C(O)CC[C@@H](C(=O)O)N1C(=O)CC(=O)N([C@@H](CCCCNC(=O)CCCc2ccc(-n3cc(CCCF)nn3)cc2)C(=O)O)C1=O [P094, (S)-2-(3-((S)-1-Carboxy-5-(4-(4-(4-(3-fluoropropyl)-1H-1,2,3-triazol-1-yl)phenyl)butanamido)pentyl)-2,4,6-trioxotetrahydropyrimidin-(2H)-yl)pentanedioic Acid]	7%		
O=C(O)CC[C@H](NC(=O)N[C@@H](CCCCNC(=O)c1cc(C(=O)O)cc(-n2cc(CCCF)nn2)c1)C(=O)O)C(=O)O [P259, (S)-2-(3-((S)-1-Carboxy-5-(3-carboxy-5-(4-(3-fluoropropyl)-1H-1,2,3-triazol-1-yl)benzamido)pentyl)ureido)pentanedioic Acid]		98%	
O=C(O)CC[C@H](NC(=O)N[C@@H](Cc1ccc(NC(=O)CCCCCn2cc(CCCF)nn2)cc1)C(=O)O)C(=O)O [P067, (S)-2-(3-((S)-1-Carboxy-2-(4-(6-(4-(3-fluoropropyl)-1H-1,2,3-triazol-1-yl)hexamido)phenyl)ethyl)ureido)pentanedioic Acid]	52%		
NCCOCCOCCOCCOCc1cn(-c2cc(C(=O)NCCCC[C@H](NC(=O)N[C@@H](CCC(=O)O)C(=O)O)C(=O)O)cc(C(=O)NCCCC[C@H](NC(=O)N[C@@H](CCC(=O)O)C(=O)O)C(=O)O)c2)nn1 [P288, (2S,2′S)-2,2′-(((((1S,1′S)-((5-(4-(13-Amino-2,5,8,11-tetraoxatridecyl)-1H-1,2,3-triazol-1-yl)isophthaloyl)bis(azanediyl))bis(1-carboxypentane-5,1-diyl))bis(azanediyl))bis(carbonyl))-bis(azanediyl))dipentanedioic Acid]		85%	9.7 nM
O=C(O)CC[C@H](NC(=O)N[C@@H](CCCCNc1cc(OCc2cn(CCF)nn2)ccc1[N+](=O)[O-])C(=O)O)C(=O)O [P242, (S)-2-(3-((S)-1-Carboxy-5-((5-((1-(2-fluoroethyl)-1H-1,2,3-triazol-4-yl)methoxy)-2-nitrophenyl)amino)pentyl)ureido)pentanedioic Acid]		99%	0.07 nM
O=C(O)CC[C@H](NC(=O)C[C@@H](NC(=O)CCNC(=O)Cn1cc(CCCF)nn1)C(=O)O)C(=O)O [P243, (S)-2-((R)-3-Carboxy-3-(3-(2-(4-(3-fluoropropyl)-1H-1,2,3-triazol-1-yl)acetamido)propanamido)-propanamido)pentanedioic Acid]		5%	
CCC1(CC)C(=O)N([C@@H](CCCCNC(=O)OCc2ccccc2)C(=O)O)C(=S)N([C@@H](CCC(=O)O)C(=O)O)C1=O [P138, (S)-2-(3-((S)-5-(Benzyloxycarbonylamino)-1-carboxypentyl)-5,5-diethyl-4,6-dioxo-2-thioxotetrahydropyrimidin-1(2H)-yl)pentanedioic Acid]	6%		
CC1(C)C(=O)N([C@@H](CCCCNC(=O)OCc2ccccc2)C(=O)O)C(=O)N([C@@H](CCC(=O)O)C(=O)O)C1=O [P077, (S)-2-(3-((S)-5-(Benzyloxycarbonylamino)-1-carboxypentyl)-5,5-dimethyl-2,4,6-trioxotetrahydropyrimidin-1(2H)-yl)pentanedioic Acid]	28%		
